Laboratory results reported in US20020137929A1, “1 - (3-heterocyclylphenyl) isothiourea, -isourea, -guanidine and -amidine herbicidal agents” (Intellectual Property Department, BASF Aktiengesellschaft, priority 1998, published 2002).

Assays:
SETVI (Foxtail, Green) [1] = assay: Postemergence herbicidal evaluation; type: in vivo, Setaria viridis; details: postemergence
In short: (§1)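 Two-week-old seedlings sprayed with compound in 50/50 acetone/water plus 0.5% TWEEN 20, at about 0.0156 to 0.500 kg/ha, nozzle at 40 psi. Kept in greenhouse; rated visually 4-5 weeks after treatment on a 0-9 scale versus control, repeat tests averaged.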

ORYSAT (Rice, Tebonnet) = assay: Postemergence herbicidal evaluation; type: in vivo, Oryza sativa, (L.) Tebonnet; details: postemergence
In short: as §1

ZEAMX (Corn, Field) [2] = assay: Postemergence herbicidal evaluation; type: in vivo, Zea mays; details: postemergence
In short: as §1

ECHCG (Barnyardgrass) = assay: Preemergence herbicidal evaluation; type: in vivo, Echinochloa crus-galli; details: rated 4-5 weeks after treatment
In short: (§2)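 Herbicidal effect scored visually, 0-9, at 4 to 5 weeks against a control; compound applied preemergence by aqueous acetone spray to seeded soil at about 0.0156 to 0.500 kg/ha.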

SETVI (Foxtail, Green) [3] = assay: Preemergence herbicidal evaluation; type: in vivo, Setaria viridis; details: rated 4-5 weeks after treatment
In short: as §2

[4] = system: TRZAWR (Wheat, Winter, cv Riband); assay: Preemergence herbicidal evaluation; type: in vivo, Triticum aestivum; details: rated 4-5 weeks after treatment
In short: as §2

ZEAMX (Corn, Field) [5] = assay: Preemergence herbicidal evaluation; type: in vivo, Zea mays; details: rated 4-5 weeks after treatment
In short: as §2

[6] = system: ECHORC (Watergrass (Calif.)); assay: Preemergence weed control under flooded paddy conditions; type: in vivo, Echinochloa oryzoides; details: rated 3-4 weeks after treatment
In short: (§3)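 Ratings on a 0-9 visual scale cover stand, vigor, malformation, size, chlorosis and overall appearance relative to a control, taken three to four weeks post-treatment. Application was into flood water over freshly sown silt loam at roughly 0.0313 to 0.500 kg/ha.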

CYPIR (Rice Flatsedge) [7] = assay: as above; type: in vivo, Cyperus iria; details: rated 3-4 weeks after treatment
In short: as §3

CYPSE (Flatsedge) [8] = assay: as above; type: in vivo, Cyperus serotinus; details: rated 3-4 weeks after treatment
In short: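 Greenhouse paddy assay. Acetone/water (50/50 v/v) solutions dosed into flood water, equivalent to about 0.0313 to 0.500 kg/ha active ingredient, over seeds planted 0.5 cm deep in silt loam. Score: 0-9 visual, based on stand, vigor, malformation, size and chlorosis, 3 to 4 weeks after treatment.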

[9] = system: ECHORC (Watergrass (Calif.)); assay: Postemergence weed control under flooded paddy conditions; type: in vivo, Echinochloa oryzoides; details: postemergence weeds, 3-4 weeks after treatment
In short: (§4)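 Flood-water application, about 0.0313–0.500 kg/ha a.i. in aqueous/acetone 50/50 v/v; water depth 1.5–3 cm throughout. Weeds 3–5 cm, rice 1.5–2.5 leaf. Greenhouse; 0–9 visual rating vs control at 3–4 wk.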

CYPIR (Rice Flatsedge) [10] = assay: as above; type: in vivo, Cyperus iria; details: postemergence weeds, 3-4 weeks after treatment
In short: as §4

CYPSE (Flatsedge) [11] = assay: as above; type: in vivo, Cyperus serotinus; details: postemergence weeds, 3-4 weeks after treatment
In short: as §4

[12] = system: SAGPY (Arrowhead (Pygmaea)); assay: as above; type: in vivo, Sagittaria pygmaea; details: postemergence weeds, 3-4 weeks after treatment
In short: as §4

`CN1C(=O)CSC1=Nc1cc(N2C(=O)C3=C(CCCC3)C2=O)c(F)cc1Cl` [Compound 1, N-{4-chloro-2-fluoro-5-[(3-methyl-4-oxo-2-thiazolidinylidene)amino]phenyl}-1-cyclohexene-1,2-dicarboximide] gave an SETVI herbicidal rating (SETVI (Foxtail, Green) [1]; rate 0.0157 kg/ha) of 1.0, an SETVI herbicidal rating (SETVI (Foxtail, Green) [1]; rate 0.0313 kg/ha) of 3.0 and an SETVI herbicidal rating (SETVI (Foxtail, Green) [1]; rate 0.0625 kg/ha) of 4.0. It also gave an SETVI herbicidal rating (SETVI (Foxtail, Green) [1]; rate 0.1250 kg/ha) of 7.0, an SETVI herbicidal rating (SETVI (Foxtail, Green) [1]; rate 0.2500 kg/ha) of 7.0 and an SETVI herbicidal rating (SETVI (Foxtail, Green) [1]; rate 0.5000 kg/ha) of 9.0. The ORYSAT herbicidal rating (ORYSAT (Rice, Tebonnet); rate 0.0157 kg/ha) was 1.0, the ORYSAT herbicidal rating (ORYSAT (Rice, Tebonnet); rate 0.0313 kg/ha) was 1.5 and the ORYSAT herbicidal rating (ORYSAT (Rice, Tebonnet); rate 0.0625 kg/ha) was 3.0. The ORYSAT herbicidal rating (ORYSAT (Rice, Tebonnet); rate 0.1250 kg/ha) was 3.5, the ORYSAT herbicidal rating (ORYSAT (Rice, Tebonnet); rate 0.2500 kg/ha) was 5.5 and the ORYSAT herbicidal rating (ORYSAT (Rice, Tebonnet); rate 0.5000 kg/ha) was 5.5. For the same compound, the ZEAMX herbicidal rating (ZEAMX (Corn, Field) [2]; rate 0.0157 kg/ha) was 2.5, the ZEAMX herbicidal rating (ZEAMX (Corn, Field) [2]; rate 0.0313 kg/ha) was 3.5 and the ZEAMX herbicidal rating (ZEAMX (Corn, Field) [2]; rate 0.0625 kg/ha) was 4.0. The ZEAMX herbicidal rating (ZEAMX (Corn, Field) [2]; rate 0.1250 kg/ha) was 5.0, the ZEAMX herbicidal rating (ZEAMX (Corn, Field) [2]; rate 0.2500 kg/ha) was 5.5 and the ZEAMX herbicidal rating (ZEAMX (Corn, Field) [2]; rate 0.5000 kg/ha) was 6.5. The “ECHCG preemergence herbicidal rating” value (ECHCG (Barnyardgrass); rate 0.0313 kg/ha) was 2.0, the “ECHCG preemergence herbicidal rating” value (ECHCG (Barnyardgrass); rate 0.0625 kg/ha) was 5.0 and the “ECHCG preemergence herbicidal rating” value (ECHCG (Barnyardgrass); rate 0.1250 kg/ha) was 6.0. The “ECHCG preemergence herbicidal rating” value (ECHCG (Barnyardgrass); rate 0.2500 kg/ha) was 5.0, the “ECHCG preemergence herbicidal rating” value (ECHCG (Barnyardgrass); rate 0.5000 kg/ha) was 7.7 and the “SETVI preemergence herbicidal rating” value (SETVI (Foxtail, Green) [3]; rate 0.0313 kg/ha) was 5.0. The “SETVI preemergence herbicidal rating” value (SETVI (Foxtail, Green) [3]; rate 0.0625 kg/ha) was 9.0, the “SETVI preemergence herbicidal rating” value (SETVI (Foxtail, Green) [3]; rate 0.1250 kg/ha) was 8.0 and the “SETVI preemergence herbicidal rating” value (SETVI (Foxtail, Green) [3]; rate 0.2500 kg/ha) was 9.0. For the same compound, the “SETVI preemergence herbicidal rating” value (SETVI (Foxtail, Green) [3]; rate 0.5000 kg/ha) was 8.0, the “TRZAWR preemergence herbicidal rating” value ([4]; rate 0.0313 kg/ha) was 2.0 and the “TRZAWR preemergence herbicidal rating” value ([4]; rate 0.0625 kg/ha) was 4.0. For the same compound, the “TRZAWR preemergence herbicidal rating” value ([4]; rate 0.1250 kg/ha) was 3.0, the “TRZAWR preemergence herbicidal rating” value ([4]; rate 0.2500 kg/ha) was 6.0 and the “TRZAWR preemergence herbicidal rating” value ([4]; rate 0.5000 kg/ha) was 6.0. The “ZEAMX preemergence herbicidal rating” value (ZEAMX (Corn, Field) [5]; rate 0.0313 kg/ha) was 0.0, the “ZEAMX preemergence herbicidal rating” value (ZEAMX (Corn, Field) [5]; rate 0.0625 kg/ha) was 0.0 and the “ZEAMX preemergence herbicidal rating” value (ZEAMX (Corn, Field) [5]; rate 0.1250 kg/ha) was 0.0. For the same compound, the “ZEAMX preemergence herbicidal rating” value (ZEAMX (Corn, Field) [5]; rate 0.2500 kg/ha) was 0.0, the “ZEAMX preemergence herbicidal rating” value (ZEAMX (Corn, Field) [5]; rate 0.5000 kg/ha) was 2.0 and the “Herbicidal rating ECHORC” value ([6]; 0.0313 kg/ha) was 2.0. For the same compound, the “Herbicidal rating ECHORC” value ([6]; 0.0625 kg/ha) was 4.0, the “Herbicidal rating ECHORC” value ([6]; 0.1250 kg/ha) was 6.0 and the “Herbicidal rating ECHORC” value ([6]; 0.2500 kg/ha) was 7.0. The “Herbicidal rating ECHORC” value ([6]; 0.5000 kg/ha) was 9.0, the “Herbicidal rating CYPIR” value (CYPIR (Rice Flatsedge) [7]; 0.0313 kg/ha) was 2.0 and the “Herbicidal rating CYPIR” value (CYPIR (Rice Flatsedge) [7]; 0.0625 kg/ha) was 7.0. For the same compound, the “Herbicidal rating CYPIR” value (CYPIR (Rice Flatsedge) [7]; 0.1250 kg/ha) was 9.0, the “Herbicidal rating CYPIR” value (CYPIR (Rice Flatsedge) [7]; 0.2500 kg/ha) was 9.0 and the “Herbicidal rating CYPIR” value (CYPIR (Rice Flatsedge) [7]; 0.5000 kg/ha) was 9.0. For the same compound, the “Herbicidal rating CYPSE” value (CYPSE (Flatsedge) [8]; 0.0313 kg/ha) was 0.0, the “Herbicidal rating CYPSE” value (CYPSE (Flatsedge) [8]; 0.0625 kg/ha) was 0.0 and the “Herbicidal rating CYPSE” value (CYPSE (Flatsedge) [8]; 0.1250 kg/ha) was 0.0. The “Herbicidal rating CYPSE” value (CYPSE (Flatsedge) [8]; 0.2500 kg/ha) was 2.0, the “Herbicidal rating CYPSE” value (CYPSE (Flatsedge) [8]; 0.5000 kg/ha) was 8.0 and the “Herbicidal rating ECHORC” value ([9]; rate 0.0313 kg/ha) was 1.0. The “Herbicidal rating ECHORC” value ([9]; rate 0.0625 kg/ha) was 2.0, the “Herbicidal rating ECHORC” value ([9]; rate 0.1250 kg/ha) was 3.0 and the “Herbicidal rating ECHORC” value ([9]; rate 0.2500 kg/ha) was 3.5. The “Herbicidal rating ECHORC” value ([9]; rate 0.5000 kg/ha) was 5.5, the “Herbicidal rating CYPIR” value (CYPIR (Rice Flatsedge) [10]; rate 0.0313 kg/ha) was 1.0 and the “Herbicidal rating CYPIR” value (CYPIR (Rice Flatsedge) [10]; rate 0.0625 kg/ha) was 3.5. For the same compound, the “Herbicidal rating CYPIR” value (CYPIR (Rice Flatsedge) [10]; rate 0.1250 kg/ha) was 5.5, the “Herbicidal rating CYPIR” value (CYPIR (Rice Flatsedge) [10]; rate 0.2500 kg/ha) was 6.5 and the “Herbicidal rating CYPIR” value (CYPIR (Rice Flatsedge) [10]; rate 0.5000 kg/ha) was 8.5. For the same compound, the “Herbicidal rating CYPSE” value (CYPSE (Flatsedge) [11]; rate 0.0313 kg/ha) was 0.0, the “Herbicidal rating CYPSE” value (CYPSE (Flatsedge) [11]; rate 0.0625 kg/ha) was 0.0 and the “Herbicidal rating CYPSE” value (CYPSE (Flatsedge) [11]; rate 0.1250 kg/ha) was 0.0. For the same compound, the “Herbicidal rating CYPSE” value (CYPSE (Flatsedge) [11]; rate 0.2500 kg/ha) was 1.0, the “Herbicidal rating CYPSE” value (CYPSE (Flatsedge) [11]; rate 0.5000 kg/ha) was 4.0 and the “Herbicidal rating SAGPY” value ([12]; rate 0.0313 kg/ha) was 0.0. The “Herbicidal rating SAGPY” value ([12]; rate 0.0625 kg/ha) was 0.0, the “Herbicidal rating SAGPY” value ([12]; rate 0.1250 kg/ha) was 0.0 and the “Herbicidal rating SAGPY” value ([12]; rate 0.2500 kg/ha) was 0.0. The “Herbicidal rating SAGPY” value ([12]; rate 0.5000 kg/ha) was 0.0.
